US20180207249A1, “METHOD AND VACCINE COMPRISING COPOLYMER 1 FOR TREATMENT OF PSYCHIATRIC DISORDERS” (YEDA RESEARCH AND DEVELOPMENT CO. LTD., priority 2003, published 2018)
Where a name gives a salt, the structure may show the parent alone.

Columns and labels:
Cop-1-reactive T cells = test: ELISA of BDNF secreted by Cop-1-reactive T cells; type: cell-based, Lewis rats; conditions: 48 h stimulation with antigen; for BDNF secreted by Cop-1-reactive T cells (mean): mean of three independent experiments, no antigen 400
Method: (iv) T-cell lines. Ten days after Cop-1 immunization, T-cell lines were generated from draining lymph node cells obtained from Lewis rats immunized with Cop-1 emulsified in CFA. The lymph nodes were surgically removed, dissociated, washed, and then activated with the antigen (10 μg/ml) in stimulation medium as previously reported (Kipnis et al., 2000). The T-cells lines were expanded by repeated stimulation and propagation.
(v) Enzyme-linked immunosorbent assay. T cell-reactive Cop-1 cells were grown for 1 week in a propagation medium, then washed with PBS and re-suspended in stimulation medium. The cultured T cells (0.5×10^6 cells/mL) were then incubated, in the presence of irradiated thymocytes (10^7 cells/mL), with concanavalin A (Con A; 1.25 μg/mL), myelin basic protein (MRP; 10 μg/ml), Cop-1 (10 μg/mL), ovalbumin (OVA; 10 μg/mL), or no antigen, in stimulation medium. After 48 h the cells were centrifaged and their supernatants were collected and sampled. Concentrations of brain-derived neurotrophic factor (BDNF) in the samples were determined with a sensitive sandwich ELISA. In brief 96-well flat-bottomed plates were coated with a chicken anti-human BDNF antibody (Promega, Madison, Wis.) in 0.025 M NaHCO3 and 0.025 M Na2CO3 (pH 8.2). Recombinant human BDNF (used as a standard; Research Diagnostics, Flanders, N.J.) was used in serial dilutions in blocking solution containing 3% bovine serum albumin, 0.05% polyoxyethylene-sorbitan monolaurate (Tween-20), and 1% fetal calf serum in PBS (pH 8.2). Bound BDNF was detected by incubating the plates with a mouse anti-human BDNF antibody (Research Diagnostics) and then with peroxidase-conjugated goat anti-mouse IgG (Jackson ImmunoResearch, West Grove, Pa.) in blocking solution. The plates were developed using a 3,3′,5,5′-tetramethylbenzidine liquid substrate system (Sigma-Aldrich). The reaction was stopped by adding 1M H3PO4, and the optical density was determined at 450 nm. Results for each experiment were calculated as the amount of secreted BDNF per 1 mL of sample, after subtraction of background levels of the irradiated thymocytes incubated with the stimulation medium.
Cop-1-reactive T cells were cultured for 48 h with Cop-1, MBP, ovalbumin, or concanavalin A in stimulation medium. T cell supernatants were collected and subjected to sandwich ELISA. […] Values are mean values (pg/ml) +/− SE (from three independent experiments) of the amounts of BDNF secreted by Cop-1-specific T cells in response to stimulation by various antigens.

[1] = test system: C57BL/6J mice injected with MK-801 or AMPH; test: Prepulse inhibition (PPI) of the acoustic startle response after psychotomimetic drug; type: in vivo, mouse; conditions: vehicle (PBS/CFA)-immunized C57BL/6J mice; MK-801 0.1 mg/kg i.p. or AMPH 2.5 mg/kg i.p.
Method: (§1) (iii) Immunization. Each animal was injected with a total of 100 μg of Cop-1 emulsified in an equal volume of complete Freund's adjuvant (CPA) containing 5 mg/ml of Mycobacteria H37 RA (Difco). The emulsion, in a total volume of 0.1 mL, was injected into the flank 1 week before the mouse was first injected with a psychotomimetic drug. Control mice were injected with an equal volume of phosphate-buffered saline (PBS) emulsified in CFA.
(vi) Drug solutions. Fresh solutions of dizocilpine maleate (MK-801; Sigma-Aidrich) were prepared in physiological saline (0.9% NaCl in sterile distilled water) for each batch of mice. […]
(viii) Prepulse inhibition (PPT). […] Acoustic PPI was measured by prepuise plus pulse trials consisting of a 2-ms prepuise, 100 ms delay, and then a 40-ms, 120-dB startle pulse. […]
PPI was calculated as a percentage score for each acoustic prepulse trial type: % PPI=100. {[(startle response for prepuise+pulse)/(startle response for pulse-alone)]×100}. The magnitude of the acoustic startle response was calculated as the average response to all of the pulse-alone trials, excluding the first and last blocks of five pulse-alone trials each. […]
(xi) Acoustic startle response (ASR). […] The ASR and pre-pulse inhibition were measured using two ventilated startle chambers (SR-LAB system, San Diego Instruments, San Diego, Calif.). […] These readings (signals) were digitized and stored in a computer. […]

[2] = test system: C57BL/6J mice injected with MK-801 or AMPH; test: Morris water maze (MWM) spatial learning/memory task after psychotomimetic drug; type: in vivo, mouse; conditions: C57BL/6J mice; MK-801 0.1 mg/kg i.p. or AMPH 2.5 mg/kg i.p.; relative to naive normal mice
Method: as §1
(vi) Drug solutions. Fresh solutions of dizocilpine maleate (MK-801; Sigma-Aidrich) were prepared in physiological saline (0.9% NaCl in sterile distilled water) for each batch of mice. Physiological saline was also used as a vehicle for D-amphetamine sulfate (AMPH: Sigma). MK-801. (0.1 mg/kg) or AMPH (2.5 mg/kg) or sahne was injected i.p., in a total volume of 5 ml per kg of body weight. Mice were injected with MK-801, AMPH, or vehicle 15 min before being subjected to behavioral tests.
(vii) Morris water maze (MWM) behavioral test. Spatial learning/memory was assessed by performance on a hippocampal-dependent visuospatial learning task in the MWM. Mice were given four trials per day, for four consecutive days, to find a hidden platform located 1.5 cm below the water surface in a pool 1.4 m in diameter. Within the testing room only distal visuo-spatial cues were available to the mice for location of the submerged platform. The escape latency, i.e., the time required by the mouse to find and climb onto the platform, was recorded for up to 60 s. Each mouse was allowed to remain on the platform for 30 s, and was then moved from the maze to its home cage. […] The inter-trial interval was 30 s. On day 5, the platform was removed from the pool, and each mouse was tested by a probe trial for 60 s. On days 6-7 the platform was placed at the opposite, location, and the mouse was retrained in four sessions. Data were recorded by using an EthoVision automated tracking system (Noldus Information Technology, Wageningen, The Netherlands). […]

Molecule	BDNF secreted by Cop-1-reactive T cells (mean) (Cop-1-reactive T cells)	Effect of psychotomimetic drug on PPI of the ASR [1]	Effect of psychotomimetic drug on MWM spatial learning and memory performance [2]	Secretion of BDNF by Cop-1-reactive T cells compared with unstimulated T cells (Cop-1-reactive T cells)
concanavalin A [Con A]	1100 pg/mL			
C[C@H](N)Cc1ccccc1 [AMPH, D-amphetamine sulfate]		significantly disrupted PPI	significantly impaired	
C[C@]12N[C@H](Cc3ccccc31)c1ccccc12 [MK-801, (+)dizocilpine maleate]		significantly disrupted PPI	significantly impaired	
myelin basic protein (protein, UniProt P02686 1-304, looked up) Myelin basic protein: MGNHAGKRELNAEKASTNSETNRGESEKKRNLGELSRTTSEDNEVFGEADANQNNGTSSQDTAVTDSKRTADPKNAWQDAHPADPGSRPHLIRLFSRDAPGREDNTFKDRPSESDELQTIQEDSAATSESLDVMASQKRPSQRHGSKYLATASTMDHARHGFLPRHRDTGILDSIGRFFGGDRGAPKRGSGKDSHHPARTAHYGSLPQKSHGRTQDENPVVHFFKNIVTPRTPPPSQGKGRGLSLSRFSWGAEGQRPGFGYGGRASDYKSAHKGFKGVDAQGTLSKIFKLGGRDSRSGSPMARR	1500 pg/mL			significantly increased
ovalbumin (protein, UniProt P01012 2-386, looked up) Ovalbumin: GSIGAASMEFCFDVFKELKVHHANENIFYCPIAIMSALAMVYLGAKDSTRTQINKVVRFDKLPGFGDSIEAQCGTSVNVHSSLRDILNQITKPNDVYSFSLASRLYAEERYPILPEYLQCVKELYRGGLEPINFQTAADQARELINSWVESQTNGIIRNVLQPSSVDSQTAMVLVNAIVFKGLWEKAFKDEDTQAMPFRVTEQESKPVQMMYQIGLFRVASMASEKMKILELPFASGTMSMLVLLPDEVSGLEQLESIINFEKLTEWTSSNVMEERKIKVYLPRMKMEEKYNLTSVLMAMGITDVFSSSANLSGISSAESLKISQAVHAAHAEINEAGREVVGSAEAGVDAASVSEEFRADHPFLFCIKHIATNAVLFFGRCVSP	440 pg/mL			
